Measurements as given in publication PMC5818190, “An allosteric binding site of the α7 nicotinic acetylcholine receptor revealed in a humanized acetylcholine-binding protein” (The Journal of Biological Chemistry, 2017).

Molecular target: T1, human α7 nAChR (Homo sapiens, UniProt P36544)
T1 construct: gene CHRNA7; full-length receptor, cRNA from pMXT vector, Xenopus laevis oocytes; homomeric pentamer
Assay: two-electrode voltage clamp, Xenopus oocytes
Assay type: cell-based

T1 sequence (P36544 23-502): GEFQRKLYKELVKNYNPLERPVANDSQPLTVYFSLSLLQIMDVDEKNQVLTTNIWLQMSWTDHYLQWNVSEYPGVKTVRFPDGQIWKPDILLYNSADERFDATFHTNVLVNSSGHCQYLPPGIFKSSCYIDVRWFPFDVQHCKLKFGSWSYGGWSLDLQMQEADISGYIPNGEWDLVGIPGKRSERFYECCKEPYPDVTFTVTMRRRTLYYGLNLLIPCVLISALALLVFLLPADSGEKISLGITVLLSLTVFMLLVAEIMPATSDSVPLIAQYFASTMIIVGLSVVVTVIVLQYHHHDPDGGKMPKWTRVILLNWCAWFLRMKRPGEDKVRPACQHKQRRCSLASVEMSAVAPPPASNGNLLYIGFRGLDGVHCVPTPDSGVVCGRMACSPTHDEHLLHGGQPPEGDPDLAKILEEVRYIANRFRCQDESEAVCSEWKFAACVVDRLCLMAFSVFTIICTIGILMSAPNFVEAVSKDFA

IC50: 26.7 ± 1.6 µM
Compound: O=C(Nc1ccc(Br)cn1)[C@@H]1CCCNC1 [CU2017, N-(5-bromopyridin-2-yl)piperidine-3-carboxamide]
